Laboratory results: PMC11909904 (Cardiovascular Diabetology, 2025)

Molecular target: T1, GPR30 (Rattus norvegicus, UniProt O08878)
T1 sequence (O08878 1-375): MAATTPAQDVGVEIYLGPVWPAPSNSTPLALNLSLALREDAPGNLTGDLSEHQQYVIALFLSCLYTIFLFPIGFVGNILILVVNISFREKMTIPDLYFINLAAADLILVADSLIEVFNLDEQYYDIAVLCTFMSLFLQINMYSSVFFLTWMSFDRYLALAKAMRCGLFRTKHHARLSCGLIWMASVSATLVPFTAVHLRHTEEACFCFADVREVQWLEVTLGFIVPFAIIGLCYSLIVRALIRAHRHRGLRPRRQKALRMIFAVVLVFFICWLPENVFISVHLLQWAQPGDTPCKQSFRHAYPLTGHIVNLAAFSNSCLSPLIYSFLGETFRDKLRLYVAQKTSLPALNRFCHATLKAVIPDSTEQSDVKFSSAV
Assay: CETSA in intact RVECs and lysates
Type: biochemical
Conditions: 30 µM Rd (CETSA)

**Q.** For `CC(C)=CCC[C@](C)(O[C@@H]1O[C@H](CO)[C@@H](O)[C@H](O)[C@H]1O)[C@H]1CC[C@]2(C)[C@@H]1[C@H](O)C[C@@H]1[C@@]3(C)CC[C@H](O[C@@H]4O[C@H](CO)[C@@H](O)[C@H](O)[C@H]4O[C@@H]4O[C@H](CO)[C@@H](O)[C@H](O)[C@H]4O)C(C)(C)[C@@H]3CC[C@]12C` [Rd, Ginsenoside Rd], which CETSA is on record?
**A.** the incubation with Rd stabilized GPR30 in heat-denatured intact RVECs and cell lysates
